Reference: BindingDB's records for doi:10.1016/j.bmcl.2009.01.088 (Abbott Laboratories, 2009)
pIC50: −log10 of the molar value.

Target: Mitogen-activated protein kinase kinase kinase 8 (Homo sapiens, UniProt P41279)
Experiment: COT HTRF Assay
Conditions: pH 7.5; 22 °C
Experimental: The COT direct HTRF assay was carried out using biotin-MEK1 as a substrate. The reaction was carried out in black 96 half-well plates. At designated time points, EDTA was added to quench the reaction. Detection reagents were then added to each well to make anti-phospho-MEK1-Eu antibody and SAXL. The plates were incubated, and then read using the RUBYstar HTRF reader.

Chain of Mitogen-activated protein kinase kinase kinase 8 (P41279 whole entry): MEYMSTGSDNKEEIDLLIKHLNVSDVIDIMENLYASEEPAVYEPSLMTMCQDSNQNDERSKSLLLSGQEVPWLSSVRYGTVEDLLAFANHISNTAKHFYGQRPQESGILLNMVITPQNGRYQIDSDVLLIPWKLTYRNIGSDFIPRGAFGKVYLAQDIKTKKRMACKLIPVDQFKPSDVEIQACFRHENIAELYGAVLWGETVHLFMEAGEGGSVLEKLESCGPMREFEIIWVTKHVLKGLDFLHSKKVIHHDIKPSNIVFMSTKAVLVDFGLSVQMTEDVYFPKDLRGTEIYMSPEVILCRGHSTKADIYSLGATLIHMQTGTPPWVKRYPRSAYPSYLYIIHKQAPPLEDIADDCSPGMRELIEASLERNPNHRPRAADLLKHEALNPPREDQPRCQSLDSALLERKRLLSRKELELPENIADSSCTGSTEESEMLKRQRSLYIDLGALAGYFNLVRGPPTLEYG

- pIC50: 6.00
Structure (SMILES): O=C(O)c1cc2c(Oc3ccc(I)cc3)cncc2s1
